SMILES strings stand for the structures. Read-outs that look alike come from different tables or passages of the source. Marks after values point to notes of the source that are not given here.

This is an account of results in publication PMC3314937, “Identifying improved TSPO PET imaging probes through biomathematics: The impact of multiple TSPO binding sites in vivo” (Neuroimage, 2012).

The nature of one data set: in vitro. Particulars: Landrace, pig, pH 7.4.
For data set [1], the system named is TSPO. Further details: method as in Owen et al. (2010, 2011). Particulars: 37 °C, ref Owen et al. (2010, 2011), cited from earlier work; for Bmax-H: HABs, ^3H-PBR28 values also used for PBR111 and DPA713, ^3H-PK11195 for PK11195; for Bmax-L: LABs; for Bmax-M: MABs, both high and low affinity sites, Bmax_H used for PK11195.
Data set [2] concerns the target TSPO. Particulars: ^3H-PK11195, 37 °C, ref Owen et al. (2010, 2011), cited from earlier work.
Data set [3] can be described thus: equilibrium dialysis, free fractions in plasma and brain tissue. Particulars: 1 μg/g, dialysis against PBS pH 7.4, 5 h, 37 °C. (Equilibrium dialysis compares concentrations on both sides of a semipermeable membrane.)
Method: (§1) The fP and fND were measured from Landrace pig tissue (blood and brain — obtained from Charles River Laboratories, Tranent, Scotland) using equilibrium dialysis ([Summerfield et al., 2006]). In brief, the cold test compounds were spiked into plasma or brain homogenate at a concentration of 1 μg/g and dialysed against phosphate buffered saline (PBS, pH 7.4) for 5 h at 37 °C. Aliquots (20–50 μL) of plasma, brain and dialysate were taken and extracted using acetonitrile containing internal standard, followed by LC–MS/MS analysis. The free fractions were determined as the concentration ratio of analyte in dialysate to that in plasma or brain.
Data set [4] concerns TSPO. The data set can be described thus: competition assays with ^3H-PK11195 for each binding class. Further details: species or system human.

Method for in vitro: as §1

On to `CC[C@@H](C)N(C)C(=O)c1cc2ccccc2c(-c2ccccc2Cl)n1` [^11C-(R)-PK11195], for which, in “in vitro” (brain homogenate), the fraction unbound (as a rule, the share of the substance not bound to proteins or other matrix) at 5 h, 1 μg/g was 0.01 ± 0.002. This compound also had a fraction unbound at 5 h, 1 μg/g in the data set “in vitro” (plasma) of 0.14 ± 0.039. Further, in the data set on TSPO [1], the Bmax-H is listed as 433 ± 154 (n = 9) nM, the Bmax-L is listed as 506 ± 131 (n = 5) nM and the Bmax-M was 433 ± 154 ^b (n = 9) nM.
On to `CCN(CC)C(=O)Cc1c(-c2ccc(OCCCF)cc2)nc2ccc(Cl)cn12` [^18F-PBR111], for which the Ki – broadly, the dissociation constant of the complex between target and ligand, obtained from inhibition or displacement – is 15.6 ± 3.7 nM at TSPO [2] (high affinity site (HABs), read-out: Ki-H) and 61.8 ± 10.7 nM on TSPO [2] (low affinity site (LABs), read-out: Ki-L).
As for `CCN(CC)C(=O)Cc1c(-c2ccc(O[11CH3])cc2)nn2c(C)cc(C)nc12` [^11C-DPA713], in the data set on TSPO [1], the Bmax-H is given as 193 ± 66 (n = 6) nM, the Bmax-L is recorded as 99.4 ± 35 (n = 5) nM and the Bmax-M is recorded as 186 ± 37 (n = 4) nM.
For `CCN(CC)C(=O)Cc1c(-c2ccc(OCCC[18F])cc2)nc2ccc(Cl)cn12` [^18F-PBR111], in the data set on TSPO [1], the Bmax-H was 193 ± 66 (n = 6) nM, the Bmax-L is recorded as 99.4 ± 35 (n = 5) nM and the Bmax-M was 186 ± 37 (n = 4) nM. In addition, the “fND (free fraction in tissue)” value in data set [3] (pig brain homogenate) is 0.06 ± 0.005 (n = 6). For the same compound, the “fp (free fraction in plasma)” value in data set [3] (pig plasma) is 0.19 ± 0.018 (n = 6). Moreover, the “affinity ratio (high:low binding site)” value in the data set on TSPO [4] is ~ 4.
